Data set [1] in a line: Alamar blue cytotoxicity (CC50), wild-type replicon cells. The class given is cell-based. As to conditions: human, Huh-7 cells carrying the wild-type HCV 377-neo replicon; Wild-type replicon cell line. On the technique in general: The colour change of resazurin is a common sign of viable cells or microbes.
The subject of data set [2] is HCV replicon (HCV 1b-377-neo replicon cells). In words: HCV replicon cell line FRET assay. The class given is cell-based. As to conditions: Hepatitis C virus. In general terms: In antiviral work, replicon cells carry a viral genome segment that copies itself.
The conditions of data set [3]: human.
In data set [4] the test system is wild-type Blast/Luciferase HCV replicon. It is filed as cell-based. Particulars: 0.5 μM Compound 124.
[5] abbreviates: read-out: Replicon Inhibition Range EC50.
The mark [6] stands for this setting: Wild-type replicon cell line, FRET assay, read-out: EC50.
Where [7] appears, read: HCV replicon cell line, FRET assay, read-out: Replicon Inhibition Range EC50.

The structures appear in SMILES notation. Like-named read-outs stand apart in the source and are kept apart here.

One may read the EC50 as the concentration at which the effect is half-maximal.

Turning to `C[C@H](NC(=O)OCc1ccccc1)C(=O)Nc1ccc(C2S/C(=N\c3cccc(F)c3)N(Cc3ccco3)C2=O)cc1` (stereo partly drawn) [Compound 1, (1S-(4-[2-(3-Fluorophenylimino)-3-furan-2-ylmethyl-4-oxo-thiazolidin-5-yl]-phenylcarbamoyl)ethyl)carbamic acid benzyl ester], the CC50 at 72 h in data set [1] and in data set [3] was above 5 µM each time. In addition, the EC50 is 100 to 1000 nM in data set [2] (setting [5]) and 1500 nM in data set [2] (setting [6]).

With `O=C(Nc1ccc(C2S/C(=N\c3ccc(N4CCOCC4)cc3)N(Cc3ccccn3)C2=O)cc1)[C@@H]1CCCN1C(=O)C(F)c1ccccc1` (stereo partly drawn) [Compound 110], in data set [2] (setting [7]), the EC50 is below 100 nM.

In the case of `C/N=C1\SC(c2ccc(NC(=O)[C@H](C)NC(=O)C(c3ccccc3)c3ccccc3)cc2)C(=O)N1Cc1ccccn1` (stereo partly drawn) [Compound 111], in data set [2] (setting [7]), the EC50 was below 100 nM.

As to `C[C@H](NC(=O)C(c1ccccc1)c1ccccc1)C(=O)Nc1ccc(C2S/C(=N\c3ccc(N4CCOCC4)cc3)N(Cc3ccccn3)C2=O)cc1` (stereo partly drawn) [Compound 112], in data set [2] (setting [7]), the half-maximal effective concentration (EC50) is below 100 nM.

For `O=C(Nc1ccc(C2S/C(=N\c3ccc(N4CCOCC4)cc3)N(Cc3ccccn3)C2=O)cc1)[C@@H]1CCC(=O)N1C(=O)C(c1ccccc1)c1ccccc1` (stereo partly drawn) [Compound 113], the EC50 in data set [2] (setting [7]) is 100 to 1000 nM.

Take `C[C@H](C(=O)N1CCC[C@H]1C(=O)Nc1ccc(C2S/C(=N\c3ccc(N4CCOCC4)cc3)N(Cc3ccccn3)C2=O)cc1)c1ccccc1` (stereo partly drawn) [Compound 114]: in data set [2] (setting [7]), the EC50 is below 100 nM.

Turning to `C[C@@H](C(=O)N1CCC[C@H]1C(=O)Nc1ccc(C2S/C(=N\c3ccc(N4CCOCC4)cc3)N(Cc3ccccn3)C2=O)cc1)c1ccccc1` (stereo partly drawn) [Compound 115], the EC50 in data set [2] (setting [7]) is below 100 nM.

In the case of `CO[C@@H](C(=O)N1CCC[C@H]1C(=O)Nc1ccc(C2S/C(=N\c3ccc(N4CCOCC4)cc3)N(Cc3ccccn3)C2=O)cc1)c1ccccc1` (stereo partly drawn) [Compound 116], the EC50 in data set [2] (setting [7]) is below 100 nM.

As to `CO[C@H](C(=O)N1CCC[C@H]1C(=O)Nc1ccc(C2S/C(=N\c3ccc(N4CCOCC4)cc3)N(Cc3ccccn3)C2=O)cc1)c1ccccc1` (stereo partly drawn) [Compound 117], the EC50 in data set [2] (setting [7]) was below 100 nM.

For `O=C(Nc1ccc(C2S/C(=N\c3ccc(N4CCOCC4)cc3)N(Cc3ccccn3)C2=O)cc1)[C@@H]1CCCN1C(=O)C1(c2ccccc2)CC1` (stereo partly drawn) [Compound 118], in data set [2] (setting [7]), the EC50 was below 100 nM.

For `O=C(C(=O)N1CCC[C@H]1C(=O)Nc1ccc(C2S/C(=N\c3ccc(N4CCOCC4)cc3)N(Cc3ccccn3)C2=O)cc1)c1ccccc1` (stereo partly drawn) [Compound 119], in data set [2] (setting [7]), the EC50 was below 100 nM.

With `CC(C)/N=C1\SC(c2ccc(NC(=O)[C@H](C)NC(=O)[C@@H](O)c3ccccc3)cc2)C(=O)N1Cc1ccccn1` (stereo partly drawn) [Compound 120], the EC50 in data set [2] (setting [7]) was below 100 nM.

Turning to `CC(C)/N=C1\SC(c2ccc(NC(=O)[C@H](C)NC(=O)[C@@H](C)c3ccccc3)cc2)C(=O)N1Cc1ccccn1` (stereo partly drawn) [Compound 121], the EC50 in data set [2] (setting [7]) is 100 to 1000 nM.

`CO[C@H](C(=O)N[C@@H](C)C(=O)Nc1ccc(C2S/C(=N\C(C)C)N(Cc3ccccn3)C2=O)cc1)c1ccccc1` (stereo partly drawn) [Compound 122]: the EC50 in data set [2] (setting [7]) was below 100 nM.

With `CC(C)/N=C1\SC(c2ccc(NC(=O)[C@H](C)NC(=O)C(c3ccccc3)c3ccccc3)cc2)C(=O)N1Cc1ccccn1` (stereo partly drawn) [Compound 123], the EC50 in data set [2] (setting [7]) was below 100 nM.

For the compound `C[C@H](NC(=O)Cc1ccccc1)C(=O)Nc1ccc(C2S/C(=N\c3cccc(F)c3)N(Cc3ccco3)C2=O)cc1` (stereo partly drawn) [Compound 124, (N-{4-[2-(3-fluorophenylimino)-3-furan-2-ylmethyl-4-oxo-thiazolidin-5-yl]phenyl}-2S-(phenylacetylamino))propionamide], the CC50 at 72 h in data set [1] and in data set [3] was above 5 µM throughout. Moreover, the EC50 in data set [2] (setting [5]) is below 100 nM; in data set [2] (setting [6]), 103 nM. The “replication of the replicon in the presence of compound” value in data set [4] is given as “completely inhibited”.

As to `C[C@H](NC(=O)CCc1ccccc1)C(=O)Nc1ccc(C2S/C(=N\c3cccc(F)c3)N(Cc3ccco3)C2=O)cc1` (stereo partly drawn) [Compound 125], the EC50 in data set [2] (setting [7]) was in the range of 1000 to 5000 nM.

Turning to `C[C@H](NC(=O)c1ccccc1)C(=O)Nc1ccc(C2S/C(=N\c3cccc(F)c3)N(Cc3ccco3)C2=O)cc1` (stereo partly drawn) [Compound 126], the EC50 in data set [2] (setting [7]) lay in the range of 1000 to 5000 nM.

In the case of `O=C(Nc1ccc(C2S/C(=N\c3cccc(F)c3)N(Cc3ccco3)C2=O)cc1)[C@@H]1CCCN1C(=O)Cc1ccc(Cl)cc1` (stereo partly drawn) [Compound 128], the EC50 in data set [2] (setting [7]) is 100 to 1000 nM.

Turning to `O=C(Nc1ccc(C2S/C(=N\c3cccc(F)c3)N(Cc3ccco3)C2=O)cc1)[C@@H]1CCCN1C(=O)Cc1ccncc1` (stereo partly drawn) [Compound 129], the EC50 in data set [2] (setting [7]) was in the range of 100 to 1000 nM.

With `O=C(Nc1ccc(C2S/C(=N\c3cccc(F)c3)N(Cc3ccco3)C2=O)cc1)[C@@H]1CCCN1C(=O)COc1ccccc1` (stereo partly drawn) [Compound 130], the EC50 in data set [2] (setting [7]) is 100 to 1000 nM.

Consider `O=C(Nc1ccc(C2S/C(=N\c3ccc(N4CCOCC4)cc3)N(Cc3ccccn3)C2=O)cc1)[C@@H]1CCCN1S(=O)(=O)Cc1ccccc1` (stereo partly drawn) [Compound 132], for which the EC50 in data set [2] (setting [7]) is 1000 to 5000 nM.

Turning to `C[C@H](NC(=O)NCc1ccccc1)C(=O)Nc1ccc(C2S/C(=N\c3cccc(F)c3)N(Cc3ccco3)C2=O)cc1` (stereo partly drawn) [Compound 133], the EC50 in data set [2] (setting [7]) is 100 to 1000 nM.

For `C[C@H](NC(=O)Nc1ccccc1)C(=O)Nc1ccc(C2S/C(=N\c3cccc(F)c3)N(Cc3ccco3)C2=O)cc1` (stereo partly drawn) [Compound 134], the EC50 in data set [2] (setting [7]) lay in the range of 1000 to 5000 nM.

For the compound `O=C(Nc1ccc(C2S/C(=N\c3ccc(N4CCOCC4)cc3)N(Cc3ccccn3)C2=O)cc1)[C@@H]1CCCN1C(=O)NCc1ccccc1` (stereo partly drawn) [Compound 135], the EC50 in data set [2] (setting [7]) is below 100 nM.

Turning to `O=C(Nc1ccc(C2S/C(=N\c3ccc(N4CCOCC4)cc3)N(Cc3ccccn3)C2=O)cc1)[C@@H]1CCCN1C(=S)NCc1ccccc1` (stereo partly drawn) [Compound 136], the EC50 in data set [2] (setting [7]) was below 100 nM.

Consider `C[C@H](NC(=O)Cc1ccccc1)C(=O)Nc1ccc(C2SC3=Nc4ccccc4CN3C2=O)cc1` (stereo partly drawn) [Compound 137], for which the EC50 in data set [2] (setting [7]) lay in the range of 100 to 1000 nM.

On to `C[C@H](NC(=O)OCc1ccccc1)C(=O)Nc1ccc(C2SC3=Nc4ccccc4CN3C2=O)cc1` (stereo partly drawn) [Compound 138], for which the EC50 in data set [2] (setting [7]) is 1000 to 5000 nM.

In the case of `O=C(Nc1ccc(C2SC3=Nc4ccccc4CN3C2=O)cc1)[C@H]1CCCN1C(=O)OCc1ccccc1` (stereo partly drawn) [Compound 139], the EC50 in data set [2] (setting [7]) was 100 to 1000 nM.

The values above are taken from patent US20050069522A1, “Combination pharmaceutical agents as inhibitors of HCV replication” (priority 2002, published 2005).
